Test results as given in US6489481B1, “Method for treating neurological disorders” (AstraZeneca AB, priority 1998, dated 2002).
Structures can show the parent of a compound that is named as a salt.

Experiments:
emopamil binding protein = molecular target: T1, emopamil binding protein (Cavia porcellus, UniProt Q60490); assay: Displacement of 3H-emopamil binding to guinea pig liver membranes; details: 0.96 nM (-)-3H-emopamil
T1 construct: Guinea pig liver membranes: 40 mg/mL original wet weight; from tissue; host or cells: guinea pig liver membranes (male guinea pigs)
T1 sequence (Q60490 1-229): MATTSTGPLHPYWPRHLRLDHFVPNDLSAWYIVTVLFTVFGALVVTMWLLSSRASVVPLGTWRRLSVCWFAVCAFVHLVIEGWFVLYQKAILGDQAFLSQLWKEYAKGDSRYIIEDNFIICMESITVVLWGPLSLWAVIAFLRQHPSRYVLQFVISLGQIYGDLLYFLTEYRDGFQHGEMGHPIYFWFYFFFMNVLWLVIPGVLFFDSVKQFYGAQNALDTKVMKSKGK
Experimental: Displacement of ^3H-Emopamil Binding to Guinea Pig Liver Membranes
The method of displacement of ^3H-emopamil binding was a modification of Zech et al (1991) Eur. J. Pharm. 208:119-130.
The Guinea-pig liver membranes were prepared as follows: Male guinea pigs were sacrificed by CO2 asphyxiation with dry ice. The livers were quickly excised and weighed and rinsed in membrane preparation buffer containing 10 mM Hepes, 1 mM Tris base-EDTA, 250 mM sucrose, pH 7.4. The livers were then minced homogenized in 10 times volume with a motor driven Teflon-glass homogenizer with three strokes on ice. The homogenate was centrifuged at 1000×g in a SS34 rotor for 5 minutes at 4° C. The supernatant was filtered through 4 layers of gauze and then centrifuged at 8000×g for 10 minutes 4° C. This resulting supernatant was centrifuged at 40,000×g for 15 minutes at 4° C. The resulting pellet was resuspended in assay buffer and centrifuged again at 40,000×g for 15 minutes at 4° C. This pellet was resuspended in assay buffer (2.5 fold with respect to original wet weight) and homogenized with one stroke with the Teflon-glass homogenizer. Aliquots of 1 mL were stored at −70° C.
The displacement assay was performed as follows: The reaction mixture contained: Assay buffer: 10 mM Tris-HCl, 0.1 mM phenylmethylsulfonyl fluoride (PMSF), 0.2% bovine serum albumin (BSA), pH 7.4 at […]. […]

PC12 cells = assay: Inhibition of apoptosis in PC12 cells induced by NGF withdrawal (Cell Death Detection ELISA); assay type: cell-based, rat
Experimental: Inhibition of Apoptosis in PC12 Cells Induced by NGF Withdrawal
Rat PC12 cells (ATCC Accession Number CRL-1721) were grown in RPMI0-1640 buffer containing 10% heat-inactivated Fetal Bovine Serum (FBS) and 1% L-glutamine (Gibco). Cells were plated in 100 mm Collagen I Falcon plates (Becton Dickinson)at a density of ˜1×10^6-2×10^6 and passed every other day at 1:10 ratio (cells were trypsinized and centrifuged at 1000 rpm for 5 min. Cells were resuspended and plated at the density of 1-2×10^6 cells). Tamoxifen was dissolved in DMSO at a concentration of 10 mM. Subsequent dilutions were done in PC12 cell growth medium containing 1% FBS. […]
Cells were harvested at various time points after the NGF withdrawal procedure to determine the time course of cell death. […] Compounds were used at various concentrations and the extent of apoptosis that occurred in the presence of compounds was expressed as a percentage relative to control cultures that were exposed to vehicle only. […]
Cell death was measured using a Cell Death Detection ELISA (Boehringer-Mannheim Cat# 1774425) according to manufacturers instructions.The ELISA is a photometric enzyme-immunoassay which determines the amount of cytoplasmic histone-associated-DNA-fragments after induced cell death. […]

mouse cortical neurons = assay: Inhibition of NMDA-induced death of mouse cortical neurons in primary cell culture (LDH); assay type: cell-based; details: result in words; NMDA-induced neuronal death is the patent's necrosis model
Experimental: Inhibition of NMDA-induced Death of Mouse Cortical Neurons in Primary Cell Culture
A glial feeder layer was prepared from post-natal day 1 or 2 mice. Cortices were dissected in a Ca^2+/Mg^2+-free balanced salt solution, minced, incubated in media stock (MS: GIBCO's MEM supplemented with bicarbonate, glucose, and glutamine) containing trypsin for 30 minutes at 37° C., and centrifuged at 1500 g for 5 minutes to produce a cell pellet. The pellet was re-suspended in plating media (MS supplemented with horse and fetal calf serum) and triturated with a glass pasteur pipette. Cells were plated in 24-well Falcon Primaria tissue culture dishes at a density of 0.5 hemispheres per plate. The dishes had been coated overnight with 10 mg/ml mouse laminin and 25 mg/ml poly-lysine, then washed three times with water. The glial feeder layer was maintained in a humidified atmosphere of 5% CO2/95% air at 37° C. for two weeks. […]
LDH activity was measured as follows: 50 ml of cell-culture media from each well was mixed with 200 ml 0.1 M KH2PO4 containing 30 mg NADH, in a 96-well microtitre plate. After 10 minutes at room temperature, 30 ml of 2.4 mM sodium pyruvate was added, and the absorbance of this solution at 340nm was immediately measured at 15 second intervals for approximately 6 minutes using a Molecular Devices Spectromax 250 plate-reader. […]

Row | IC50 (emopamil binding protein) [nM] | SMILES | percentage in the PC12 assay (extent of apoptosis relative to control) (PC12 cells; relative to vehicle-only control cultures, 100% = no inhibition of apoptosis, 0% = total inhibition) [%] | inhibition of necrosis (mouse cortical neurons) | inhibition of apoptosis (PC12 cells; result in words)
1 | 75 | CC/C(=C(/c1ccc(OCCN(C)C)cc1)c1ccc(OC(=O)C(C)(C)C)cc1)c1ccccc1 [Example 11, 2,2-dimethyl-, 4-[1-[4-[2-(dimethylamino)ethoxy]phenyl]-2-phenyl-1-butenyl]phenyl Propanoic acid ester, (E)-] | 41 | – | –
2 | – | CC/C(=C(\c1ccccc1)c1ccc(OCCN(C)C)cc1)c1ccccc1 [tamoxifen citrate] | – | inhibit both apoptosis and necrosis | inhibit both apoptosis and necrosis
